One assay addresses GFP-ZIPK (Homo sapiens, UniProt O43293). In words: FLECS elution of GFP-ZIPK from γ-linked ATP Sepharose media. In kind it is binding. The settings on record: titration from ATP Sepharose.
In another assay the target is PIM3-GFP (Homo sapiens, UniProt Q86V86). In words: FLECS elution of PIM3-GFP from γ-linked ATP Sepharose media. In kind it is binding. Conditions: titration from ATP Sepharose; calculated from EC50; read-out: apparent Kd, elution of PIM3-GFP.

The source of these data is patent US11999737B2, “Kinase inhibitors and related methods of use” (Duke University, priority 2014, dated 2024).

Chain of GFP-ZIPK (O43293 whole entry): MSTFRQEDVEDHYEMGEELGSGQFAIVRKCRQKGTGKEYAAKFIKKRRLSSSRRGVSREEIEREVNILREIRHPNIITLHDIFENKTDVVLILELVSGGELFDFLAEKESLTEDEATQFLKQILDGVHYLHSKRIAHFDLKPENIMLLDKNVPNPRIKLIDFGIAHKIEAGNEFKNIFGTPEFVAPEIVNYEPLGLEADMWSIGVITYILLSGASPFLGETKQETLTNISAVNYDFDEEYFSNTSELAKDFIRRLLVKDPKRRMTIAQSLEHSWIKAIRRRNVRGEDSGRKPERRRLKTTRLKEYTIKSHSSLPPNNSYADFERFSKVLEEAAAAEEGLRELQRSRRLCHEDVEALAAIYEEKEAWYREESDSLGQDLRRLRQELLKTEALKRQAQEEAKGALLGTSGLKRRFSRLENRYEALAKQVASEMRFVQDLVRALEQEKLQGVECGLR

As for `O=S(=O)(c1cccc2c(I)cccc12)N1CCCNCC1` [ML-7, reference compound], at GFP-ZIPK, the “elution of full length GFP-ZIPK” value is “failed to elute”. Besides, the Kd on PIM3-GFP was 201 nM.
